Measurements: patent US20100256214A1, “EPH RECEPTOR LIGANDS AND METHODS OF USE” (Burnham Institute for Medical Research, priority 2009, published 2010)

Experiments:
PC3 cells = test: PC3 cell retraction assay; assay type: cell-based
Experimental: FIGS. 9A-9G. A. PC3 cells pretreated for 15 min with the indicated concentrations of compound 1 or compound 2 were stimulated with 0.5 μg/mL ephrin-A1 Fc (+) or Fc as a control (−) for 20 min in the continued presence of the compounds. EphA2 immunoprecipitates were probed with anti-phosphotyrosine antibody (PTyr) and reprobed for EphA2. C indicates immunoprecipitations performed with control antibodies. B. Histogram showing the levels of EphA2 phosphorylation normalized to the amount of immunoprecipitated EphA2. Error bars indicate standard error from 3 experiments. Receptor phosphorylation levels were compared with those in the ephrin-stimulated cells by one-way ANOVA and Dunnett's post test. *P<0.05 and *P<0.01. C. PC3 cells stimulated with compound 1 as in (A) were stained with rhodamine-phalloidin to label actin filaments and DAPI to label nuclei. DMSO was used as a control (0 μM). D. Histogram showing the mean area of the cells normalized to the value obtained for the Fc stimulated cells. E. Histogram showing the mean percentage of retracting cells. Cells having rounded shape and area less than 20% of the mean value obtained for the Fc stimulated cells were scored as retracting. Error bars in D and E indicate standard error from 3 experiments. F-H. The same experiments as in (C-E) were performed using compound 2. The areas occupied by the cells and the percentage of cell retraction under different conditions were compared to those in the Fc control condition by one-way ANOVA and Dunnett's post test. *P<0.05 and **P<0.01. Scale bars in (C) and (F)=50 μm.
PC3 Cell Retraction Assay—PC3 cells were plated on glass coverslips and grown in RPMI 1640 medium (Mediatech, Inc, Herndon, Va.) with 10% FBS and Pen/Strep. After 17 hours the cells were starved for 3 hours in 0.5% FBS in DMEM and then incubated for 40 min with the compounds or DMSO, before stimulation for 10 min with 0.5 μg/mL of ephrin-A1 Fc or Fc as a control. The cells were fixed in 4% formaldehyde in PBS, permeabilized in 0.5% Triton X-100 in TBS and stained with rhodamine-conjugated phalloidin (Invitrogen, Carlsbad, Calif.) and DAPI. Cells were photographed under a fluorescence microscope and cell area was measured in a blinded manner using ImageJ software. Cells having rounded shape and area equal or below 20% of the area of Fc control-treated cells were considered as retracting.

COS and HT22 cells = test: Overall tyrosine phosphorylation in COS and HT22 cells; assay type: cell-based
Experimental: Measurement of Receptor Tyrosine Phosphorylation in Cells—HT22 neuronal cells, which endogenously express EphA4, are derived from immortalized mouse hippocampal neurons (Li et al. (1997) Neuron 19(2), 453-463). COST cells, which endogenously express EphA2, EphB2 and the EGF receptor (EGFR), were obtained from ATCC. Both cell lines were grown in Dulbecco's Modified Eagle's Medium (DMEM) (Mediatech, Inc, Herndon, Va.) with 10% fetal bovine serum (FBS) (Hyclone, Logan, Utah) and Pen/Strep. For EphA4 immunoprecipitations, HT22 cells were serum-starved overnight in 0.5% FBS in DMEM and incubated for 15 min with the compounds or DMSO as a control. The cells were then stimulated with 0.5 μg/mL ephrin-A5 Fc, ephrin-A4 Fc or Fc for 20 min in the continued presence of the compounds. After stimulation the cells were lysed in modified RIPA buffer (1% Triton X-100, 1% Na deoxycholate; 0.1% SDS; 20 mM Tris; 150 mM NaCl; 1 mM EDTA) containing […], 1 μM sodium pervanadate and protease inhibitors. The protein concentration was calculated using the BCA protein assay kit (Pierce Biotecnology, Rockford, Ill.). Cell lysates were immunoprecipitated with 4 μg anti-EphA4 antibody (Soans et al. (1994) Oncogene 9(11), 3353-3361). For EphA2 and EphB2 immunoprecipitations, serum-starved COS7 cells were stimulated with 0.1 μg/mL ephrin-A1 Fc or 0.5 μg/mL ephrin-B2 Fc, respectively. […]

HT22 neuronal cells = test: MTT cytotoxicity assay; assay type: cell-based, mouse; details: concentrations up to 400 μM for several days
Experimental: FIG. 7. HT22 neuronal cells were grown in the presence of the indicated concentrations of compounds 1 and 2 for 1, 2 and 3 days. Only DMSO was used in the “0 μM” sample, as a control. After addition of MTT, absorbance was measured at 570 nm to determine the levels of viable cells present. The histograms show the absorbance obtained for each condition normalized to the absorbance in the absence of the compounds. Error bars represent standard error from 3 measurements.
MTT Assay—The cytotoxicity of the compounds was measured using the 3-(4,5-dimethylthiazol-2-yl)-2,5-diphenyltetrazolium bromide (MTT) colorimetric assay. Cells were seeded in 96-well plates and treated with compounds or DMSO starting 3, 2 or 1 day before they reached 100% confluency. For the assay, MTT (Sigma-Aldrich, St. Louis, Mo.) was added at a final concentration of […] and incubated with the cells for 3 hours. The resulting formazan crystals were then solubilized by addition of 100% DMSO. The absorbance in each well was measured at 570 nm using an ELISA plate reader. The results were expressed as the ratio of the absorbance of the cells treated with the compounds and left untreated.

Cc1ccc(C)n1-c1ccc(C(=O)O)c(O)c1 [compound 1, 4-(2,5-dimethyl-pyrrol-1-yl)-2-hydroxy-benzoic acid]
cell morphology in the absence of ephrin treatment (PC3 cells): did not affect | decrease in cell spreading caused by ephrin-A1 Fc (PC3 cells): blocked | increase in the percentage of rounded cells caused by ephrin-A1 Fc (PC3 cells): blocked | overall tyrosine phosphorylation (COS and HT22 cells): did not inhibit | toxicity, cell viability by MTT (HT22 neuronal cells): did not reveal any toxicity

Cc1ccc(C)n1-c1ccc(O)c(C(=O)O)c1 [compound 2, 5-(2,5 dimethyl-pyrrol-1-yl)-2-hydroxy-benzoic acid]
cell morphology in the absence of ephrin treatment (PC3 cells): did not affect | decrease in cell spreading caused by ephrin-A1 Fc (PC3 cells): blocked | increase in the percentage of rounded cells caused by ephrin-A1 Fc (PC3 cells): blocked | overall tyrosine phosphorylation (COS and HT22 cells): did not inhibit | toxicity, cell viability by MTT (HT22 neuronal cells): did not reveal any toxicity
